Reference: paper PMC6582431 (Chemmedchem, 2018)

Experiments:
FAAH [1] = biological target: T1, FAAH (Rattus norvegicus, UniProt P97612); experiment: In vitro FAAH activity in rat brain homogenates/membranes; assay type: biochemical; details: 100 nM; rat brain homogenates, 15 min pre-incubation; Table 5
T1 sequence (P97612 1-579): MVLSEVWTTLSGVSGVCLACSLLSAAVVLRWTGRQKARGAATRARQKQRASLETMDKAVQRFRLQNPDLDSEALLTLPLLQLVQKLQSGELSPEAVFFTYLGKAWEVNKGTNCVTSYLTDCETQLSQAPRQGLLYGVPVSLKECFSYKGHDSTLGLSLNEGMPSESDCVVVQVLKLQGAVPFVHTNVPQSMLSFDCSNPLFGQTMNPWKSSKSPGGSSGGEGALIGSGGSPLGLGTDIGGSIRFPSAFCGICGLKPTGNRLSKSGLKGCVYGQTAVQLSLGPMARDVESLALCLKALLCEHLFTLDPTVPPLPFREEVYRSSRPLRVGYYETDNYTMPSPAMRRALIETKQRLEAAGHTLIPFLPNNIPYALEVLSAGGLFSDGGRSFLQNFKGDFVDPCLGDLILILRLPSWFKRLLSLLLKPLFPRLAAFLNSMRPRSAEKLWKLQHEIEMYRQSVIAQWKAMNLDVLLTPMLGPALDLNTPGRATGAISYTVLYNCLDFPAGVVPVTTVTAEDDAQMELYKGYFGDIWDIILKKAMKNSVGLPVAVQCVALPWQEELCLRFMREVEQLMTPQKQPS

FAAH [2] = biological target: T2, FAAH (Mus musculus, UniProt O08914); experiment: In vivo FAAH inhibition, liver, after oral administration to mice
T2 sequence (O08914 1-579): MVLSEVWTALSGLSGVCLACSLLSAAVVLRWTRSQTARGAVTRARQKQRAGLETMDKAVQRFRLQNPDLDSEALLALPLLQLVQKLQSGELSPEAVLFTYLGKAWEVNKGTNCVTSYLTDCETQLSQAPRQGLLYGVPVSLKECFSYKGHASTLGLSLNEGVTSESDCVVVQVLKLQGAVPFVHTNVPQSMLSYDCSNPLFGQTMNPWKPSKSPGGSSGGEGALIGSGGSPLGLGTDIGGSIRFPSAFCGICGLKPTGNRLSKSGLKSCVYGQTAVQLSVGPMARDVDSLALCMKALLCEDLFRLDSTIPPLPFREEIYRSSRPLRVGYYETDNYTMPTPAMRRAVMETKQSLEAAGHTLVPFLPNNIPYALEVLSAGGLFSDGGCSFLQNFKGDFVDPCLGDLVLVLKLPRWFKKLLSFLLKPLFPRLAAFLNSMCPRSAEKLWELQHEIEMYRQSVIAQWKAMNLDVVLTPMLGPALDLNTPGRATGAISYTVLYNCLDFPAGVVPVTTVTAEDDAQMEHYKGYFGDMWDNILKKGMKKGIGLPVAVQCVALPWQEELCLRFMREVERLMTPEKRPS

carboxylesterases (CEs) = experiment: CE activity in rat liver microsomes; assay type: biochemical; details: 10 μM in rat liver microsomes; Table 5
MAGL = biological target: T3, MAGL (Rattus norvegicus, UniProt Q8R431); experiment: MAGL activity in rat cerebellum cytosol; assay type: biochemical; details: C inhib=100 μM in rat cerebellum cytosol; Table 5
T3 sequence (Q8R431 1-303): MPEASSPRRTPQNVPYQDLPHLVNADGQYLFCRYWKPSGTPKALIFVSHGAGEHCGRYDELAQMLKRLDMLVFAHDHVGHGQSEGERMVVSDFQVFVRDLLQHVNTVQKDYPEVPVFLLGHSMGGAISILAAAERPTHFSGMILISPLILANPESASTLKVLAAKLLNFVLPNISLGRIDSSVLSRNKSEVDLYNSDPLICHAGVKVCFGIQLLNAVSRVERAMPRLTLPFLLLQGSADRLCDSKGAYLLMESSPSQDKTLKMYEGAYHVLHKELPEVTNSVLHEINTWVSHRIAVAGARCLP

[3] = CYP450 metabolic stability, mouse liver microsomes; assay type: in vitro ADME; details: 5 μM in liver microsomes, 1 h incubation
[4] = CYP450 metabolic stability, rat liver microsomes; assay type: in vitro ADME; details: 5 μM in liver microsomes, 1 h incubation
[5] = CYP450 metabolic stability, dog liver microsomes; assay type: in vitro ADME; details: 5 μM in liver microsomes, 1 h incubation
[6] = CYP450 metabolic stability, primate liver microsomes; assay type: in vitro ADME; details: 5 μM in liver microsomes, 1 h incubation
[7] = CYP450 metabolic stability, human liver microsomes; assay type: in vitro ADME; details: 5 μM in liver microsomes, 1 h incubation
[8] = multiple ascending doses up to 20 mg; cited from earlier work
FAAH [9] = biological target: T2, FAAH; experiment: In vivo FAAH inhibition, brain, after oral administration to mice
[10] = 0.1 mg kg^−1, mouse, p.o., text b31
[11] = 0.1 mg kg^−1 p.o. in mice, 8 h after administration, Table 5
[12] = 0.1 mg kg^−1 p.o., mice, post-dose

FAAH activity, percent of control, 100 nM (FAAH [1]): 85±11% of control | in vivo FAAH inhibitory activity, liver (FAAH [2]; [10]): > 90 % of control | Liver FAAH activity, percent of control (FAAH [2]; [11]): 6±2% of control | time of maximum inhibitory effect in the liver (FAAH [2]; [12]): 1 h | ED50 (FAAH [2]; mouse, po, 8 h, read-out: ED50 liver FAAH): 7 µg/kg | inhibition at 0.1 mg/kg (FAAH [2]; mouse, po, read-out: peripheral inhibition of FAAH sustained over the next 7 h): > 90% | MAGL (100 μM), percent of control (MAGL): 96±4% of control | CYP450 metabolic stability, Mouse, percent of remaining [3]: 99±2% of remaining | CYP450 metabolic stability, Rat, percent of remaining [4]: 91±1% of remaining | CYP450 metabolic stability, Dog, percent of remaining [5]: 94±2% of remaining | CYP450 metabolic stability, Primate, percent of remaining [6]: 88±1% of remaining | CYP450 metabolic stability, Human, percent of remaining [7]: 95±1% of remaining | in vivo FAAH inhibitory activity, brain (FAAH [9]; [10]): > 90 % of control | Brain FAAH activity, percent of control (FAAH [9]; [11]): 8±2% of control | maximal inhibitory effect in the brain (FAAH [9]; 0.1 mg kg^−1 p.o., mice, at 8 h post-dose): > 90% | time of maximal inhibitory effect in the brain (t max) (FAAH [9]; [12]): 8 h | central FAAH inhibition maintained up to 48 h post-administration (FAAH [9]; 0.1 mg kg^−1 p.o., mice, up to 48 h): > 50% | ED50 cerebral FAAH (FAAH [9]; mice, p.o., 0.001 to 3 mg kg^−1, 8 h post-administration): ~27 µg/kg
Structure (SMILES): CN(C(=O)n1cnc(-c2ccc[n+]([O-])c2)c1)C1CCCCC1 [Compound 8 l, 3‐(1‐(Cyclohexyl(methyl)carbamoyl)‐1H‐imidazol‐4‐yl)pyridine 1‐oxide]
CEs (10 μM), percent of control (carboxylesterases (CEs)): 102±5% of control | systemic exposure to anandamide [8]: increased in a dose‐dependent manner
